# Experimental data taken from patent publication US7601863B2, “Use of PPAR agonists for the treatment of congestive heart failure” (sanofi-aventis Deutschland GmbH, priority 2004, dated 2009).
# Key:
# [1] = system: rat model of chronic coronary artery ligation (myocardial infarction, congestive heart failure); experiment: Proof of concept study: chronic heart failure after permanent left coronary artery occlusion; lung weight and isolated working heart after eight weeks of treatment; format: in vivo, Male Wistar rats; conditions: for Lung weight / Cardiac output / LV dP/dtmax / LV dP/dtmin: MI, eight weeks, mean ± sem; for Cardiac output / LV dP/dtmax / LV dP/dtmin: working heart, afterload 80 mmHg
# Source text: In order to test the effect of specific activation of either PPARγ (rosiglitazone) or PPARα (compound of formula (I), (II) and (III)) on the improvement of CHF, a rat model of chronic coronary artery ligation was used because myocardial infarction is the most common cause for CHF in the industrialized countries.
# Male Wistar rats were housed three per cage under standardized conditions of temperature, humidity, and light. They had free access to a standardized diet (sodium content 0.2%, Altromin, Lage, Germany) and tap drinking water. Chronic heart failure was induced by a permanent occlusion of the left coronary artery approximately 2 mm distal to its origin from the aorta resulting in a large infarction of the free left ventricular wall. Chronic treatment was initiated on the day after production of the myocardial infarction and continued for eight weeks.
# The left atrium was cannulated by an incision of the left auricle. After a 15-minute equilibration period at a fixed perfusion pressure of 60 mmHg, the heart was switched into the working mode at a fixed filling pressure of 11 mm Hg. Then, afterload pressure was varied stepwise every two minutes from 40 to 140 mmHg. […] Flow and pressure signals were sampled at 500 Hz, averaged every 2 seconds. Cardiac output measures the overall capacity of the heart to pump the blood through the body. LV dP/dtmax is an index of myocardial contractility, i.e. the force generating ability of the heart; LV dP/dtmin is an index of the ability of the myocardium to relax. In addition, lung weight was measured as an index of pulmonary congestion, an indirect sign of CHF.
# Treatment with a compound of the formula (I) (pressed in chow, resulting in a dose of 20 mg/kg/d) was initiated on the day after myocardial infarction. The pure PPARγ agonist rosiglitazone was used for comparison in an additional group (3 mg/kg/day in chow).
# [2] = system: rats with chronic ligation of the left coronary artery (myocardial infarction, heart failure); experiment: Dose response in chronic myocardial infarction: lung weight and isolated working heart after 8 weeks of treatment; format: in vivo, Male Sprague Dawley rats; conditions: for Lung weight / Cardiac output / LV dP/dtmax / LV dP/dtmin: MI, 8 weeks, mean ± sem; for Cardiac output / LV dP/dtmax / LV dP/dtmin: working heart, afterload 80 mmHg
# Procedure: At the end of the treatment period, cardiac function was measured using an isolated working heart preparation (modified Langendorff apparatus, cf. Linz et al., J. Ren. Angiotensin Aldosterone Syst., 2003): The hearts were perfused according to Langendorff's method with an oxygenated (95% O2, 5% CO2) noncirculating Krebs-Henseleit solution of the following compositions (mmol/L): NaCl, 118; KCl, 4.7; CaCl2, 2.5; MgSO4, 1.6; NaHCO3, 24.9; KH2PO4, 1.2; glucose, 5.5; Na-pyruvate, 2.0. The left atrium was cannulated by an incision of the left auricle. After a 15-minute equilibration period at a fixed perfusion pressure of 60 mmHg, the heart was switched into the working mode at a fixed filling pressure of 11 mm Hg. Then, afterload pressure was varied stepwise every two minutes from 40 to 140 mmHg. Data in the table are representative and given for a constant afterload pressure of 80 mmHg. Flow and pressure signals were sampled at 500 Hz, averaged every 2 seconds. Cardiac output measures the overall capacity of the heart to pump the blood through the body. LV dP/dtmax is an index of myocardial contractility, i.e. the force generating ability of the heart; LV dP/dtmin is an index of the ability of the myocardium to relax. In addition, lung weight was measured as an index of pulmonary congestion, an indirect sign of CHF.
# Male Sprague Dawley rats were pre-treated with a chronic ligation of the left coronary artery, in order to produce a myocardial infarction (MI) and subsequent development of heart failure: Treatment with a compound of the formula (I) (pressed in chow, resulting in different daily doses) was initiated on the day after myocardial infarction. After 8 weeks of treatment, the animals were killed, the lung was weighed, and the function of the isolated heart was analyzed ex vivo in the working heart mode, in the same manner as described for Example 1 (vide supra). This method allows to assess different aspects of the myocardial function. For comparison against the effect of an established therapeutic principle in the present experimental series, the dual ACE/NEP, or vasopeptidase, inhibitor (7-(2-Acetylsulfanyl-3-methyl-butyrylamino)-6-oxo-1,2,3,4,6,7,8,12b-octahydro-benzo[c]pyrido[1,2-a]azepine-4-carboxylic acid; international patent application no. WO 02/083671) that is known for being active in the treatment of CHF was applied in an additional group.
# [3] = rosiglitazone 3 mg/kg/d in chow
# [4] = compound (I) 20 mg/kg/d in chow
compound,measurement,setting,value
"CN(CCOc1ccc(CC2SC(=O)NC2=O)cc1)c1ccccn1 (centres unmarked) [Rosiglitazone, rosiglitazone, reference compound]",Lung weight,[1]; [3],3.67 ± 0.38 Gram
same,Cardiac output,[1]; [3],10.2 ± 3.8 mL/min
same,LV dP/dtmax,[1]; [3],3491 ± 147 mmHg/s
same,LV dP/dtmin,[1]; [3],2081 ± 65 mmHg/s
"Cc1cccc(COCCCOCc2coc(-c3ccccc3)n2)c1C(=O)O [compound (I), 2-methyl-6-[3-(2-phenyloxazol-4-ylmethoxy)propoxymethyl] benzoic acid]",Effect of chronic treatment on heart failure (in words),"[2]; MI rats, 8 weeks in chow, different daily doses",improves different aspects of heart failure
same,Lung weight,[2]; 1 mg/kg/d in chow,0.80 ± 0.08 g/100 g BW
same,Cardiac output,[2]; 1 mg/kg/d in chow,12.5 ± 3.3 mL/min
same,LV dP/dtmax,[2]; 1 mg/kg/d in chow,3280 ± 250 Mm Hg/s
same,LV dP/dtmin,[2]; 1 mg/kg/d in chow,1886 ± 137 mm Hg/s
same,Lung weight,[2]; 3 mg/kg/d in chow,0.54 ± 0.08 g/100 g BW
same,Cardiac output,[2]; 3 mg/kg/d in chow,21.5 ± 5.4 mL/min
same,LV dP/dtmax,[2]; 3 mg/kg/d in chow,3665 ± 166 Mm Hg/s
same,LV dP/dtmin,[2]; 3 mg/kg/d in chow,2353 ± 77 mm Hg/s
same,Lung weight,[2]; 10 mg/kg/d in chow,0.54 ± 0.09 g/100 g BW
same,Cardiac output,[2]; 10 mg/kg/d in chow,21.0 ± 4.0 mL/min
same,LV dP/dtmax,[2]; 10 mg/kg/d in chow,4043 ± 256 Mm Hg/s
same,LV dP/dtmin,[2]; 10 mg/kg/d in chow,2339 ± 111 mm Hg/s
same,Effect of chronic treatment on heart failure (in words),"[1]; MI rats, eight weeks in chow, compound (I) 20 mg/kg/d, rosiglitazone 3 mg/kg/day",improves different aspects of heart failure
same,Lung weight,[1]; [4],1.62 ± 0.06 Gram
same,Cardiac output,[1]; [4],25.8 ± 4.3 mL/min
same,LV dP/dtmax,[1]; [4],4614 ± 253 mmHg/s
same,LV dP/dtmin,[1]; [4],2502 ± 77 mmHg/s
"CC(=O)SC(C(=O)NC1Cc2ccccc2C2CCCC(C(=O)O)N2C1=O)C(C)C (centres unmarked) [VPI, 7-(2-Acetylsulfanyl-3-methyl-butyrylamino)-6-oxo-1,2,3,4,6,7,8,12b-octahydro-benzo[c]pyrido[1,2-a]azepine-4-carboxylic acid, reference compound]",Lung weight,[2]; 30 mg/kg/d,0.56 ± 0.07 g/100 g BW
same,Cardiac output,[2]; 30 mg/kg/d,27.2 ± 3.5 mL/min
same,LV dP/dtmax,[2]; 30 mg/kg/d,3868 ± 172 Mm Hg/s
same,LV dP/dtmin,[2]; 30 mg/kg/d,2379 ± 120 mm Hg/s
